Publication PMC5520057, “Modulation of nongenomic activation of PI3K signalling by tetramerization of N-terminally-cleaved RXRα” (Nature Communications, 2017)
Numbering of substitutions follows the chain as printed. “And” between values parts separate entries of the source, which are not always exact repeats. Identical values can stand only once.

What was measured:
[1] = test system: RXRα-A/B / RXRα-LBD interaction; assay: coIP, N/C interaction RXRα-A/B with RXRα-LBD; type: cell-based; conditions: HepG2 cells, coIP with anti-HA antibody; one of two similar experiments
[2] = test system: p85α-ΔiSH2 / tRXRα interaction; assay: p85α-ΔiSH2 interaction with tRXRα; type: cell-based
Description: (§1) Cell lysates were then prepared and incubated with bis[sulfosuccinimidyl] suberate (BS3, Pierce) dissolved in dimethyl sulfoxide to a final concentration of 1 mM. The reactions were stopped with protein gel loading buffer. Samples were resolved by SDS/PAGE in 8% acrylamide gels and protein bands were visualized by western blotting.

[3] = test system: tRXRα/F313A; assay: BS3 crosslinking, tRXRα/F313A; type: cell-based; conditions: MCF-7 cells, 9-cis-RA (10^−7 M) or K-80003 (5 × 10^−6 M) for 6 h
Description: as §1

[4] = test system: p85α-BCR / tRXRα interaction; assay: coIP, p85α-BCR with tRXRα; type: cell-based; conditions: 9-cis-RA (10^−7 M), one of two similar experiments
Description: (§4) For coIP assay[29], HEK293T cells grown in 10 cm dishes were transfected with various plasmids. Cells were lysed in 1 ml of lysis buffer (20 mM Tris (pH 7.5), 150 mM NaCl, 1% Triton X-100, 1 mM EDTA, 30 mM NaF, 2 mM sodium pyrophosphate) with a cocktail of proteinase inhibitors (Roche). Lysates were incubated with the appropriate antibody for 12 h at 4 °C and subsequently incubated with protein A-Sepharose beads for 1 h. The immunoprecipitates were collected and washed three times with lysis buffer. The protein–antibody complexes recovered on beads were subjected to immunoblotting using appropriate antibodies after separation by SDS-PAGE. Input represents 5% of cell lysates used for coIP assays.

[5] = test system: p85α-BCR / RXRα-LBD/W305Q interaction; conditions: HEK293T cells; with or without 9-cis-RA (10^−7 M)
Description: (§2) For coIP assay, HEK293T cells grown in 10 cm dishes were transfected with various plasmids. Cells were lysed in 1 ml of lysis buffer (20 mM Tris (pH 7.5), 150 mM NaCl, 1% Triton X-100, 1 mM EDTA, 30 mM NaF, 2 mM sodium pyrophosphate) with a cocktail of proteinase inhibitors (Roche). Lysates were incubated with the appropriate antibody for 12 h at 4 °C and subsequently incubated with protein A-Sepharose beads for 1 h. The immunoprecipitates were collected and washed three times with lysis buffer. The protein–antibody complexes recovered on beads were subjected to immunoblotting using appropriate antibodies after separation by SDS-PAGE. Input represents 5% of cell lysates used for coIP assays.

[6] = test system: RXRα-A/B / RXRα-LBD/W305Q interaction; assay: coIP, N/C interaction RXRα-A/B with RXRα-LBD/W305Q; type: cell-based; conditions: HEK293T cells; 9-cis-RA (10^−7 M)
Description: as §4

[7] = test system: tRXRα/R316E; assay: BS3 crosslinking, tRXRα/R316E; type: cell-based; conditions: MCF-7 cells, 9-cis-RA (10^−7 M) or K-80003 (5 × 10^−6 M) for 6 h
Description: as §1

[8] = test system: p85α / tRXRα/R316E interaction; assay: coIP, p85α with tRXRα/R316E; type: cell-based; conditions: HEK293T cells; TNFα (10 ng ml^−1) or 9-cis-RA (10^−7 M) for 1 h; coIP anti-Myc
Description: as §4

[9] = test system: p85α / tRXRα/F313A interaction; assay: coIP, p85α with tRXRα/F313A; type: cell-based; conditions: HEK293T cells; 9-cis-RA (10^−7 M) for 1 h; coIP anti-Myc
Description: as §4

[10] = test system: RXRα; set-up: method as in PMID 10970886, PMID 9811539; conditions: cited from earlier work
From the text: In addition to acting as heterodimeric partners of some nuclear receptors, RXRα can form homodimers[18] that trigger specific signalling pathways. A unique property of RXRα is an auto-repressive mechanism involving homotetramerization, in which a ‘dimer-of-dimers’ pack in a bottom-to-bottom manner, with H12 from each monomer invading (and invaded by) a neighbouring domain across the tetramer interface. This pairwise ‘exchange of arms’ enables each monomer to bind to and occlude the coregulator-binding groove of its neighbour. Some molecules hav ...

[11] = test system: p85α-BCR / RXRα-LBD interaction; assay: coIP, p85α-BCR with RXRα-LBD; type: cell-based; conditions: 9-cis-RA (10^−7 M), one of two similar experiments
Description: as §2

[12] = test system: RXRα-LBD; assay: BS3 crosslinking, transfected RXRα-LBD; type: cell-based; conditions: HepG2 cells; 9-cis-RA (10^−7 M) or K-80003 (5 × 10^−6 M) for 6 h; BS3 1 mM; western blotting
Description: as §1

[13] = test system: RXRα-LBD/R316E; assay: Non-denaturing gel electrophoresis, R316E mutant; type: biochemical, human; conditions: 9-cis-RA (0.5 μM) or K-80003 (20 μM), 3 h at 4 °C
Description: The human RXRα LBD (residues Thr223 to Thr462) cloned as an N-terminal histidine-tagged fusion protein in pET15b expression vector was expressed in Escherichia coli BL21 strain (Stratagene). After sonication, cell extract was incubated with the His60 Ni Superflow resin, and His-tagged RXRα-LBD-resin complexes were washed, eluted and concentrated to 5 mg ml^−1 for subsequent trails. For crystallization experiment, bovine thrombin (Sigma) was used to cleave the His tag from the purified His-tagged RXRα-LBD. The resulting His tag was removed on the Resource-Q column (GE) using 0.1–1 M NaCl gradient and the Tris-Cl pH 8 buffer. RXRα-LDB was further purified using gel filtration on a Superdex 200 2660 column (GE) pre-equilibrated with the 75 mM NaCl, 20 mM Tris-Cl buffer (pH 8).

[14] = target: Myc-RXRα-LBD (human); assay: cross-linking; cells (HepG2, HEK293T, MCF-7) transfected for 24 h, treated with 9-cis-RA (10^-7 M) and/or K-80003 (5 x 10^-6 M) for 6 h; lysates or fractions incubated with 1 mM BS3, SDS-PAGE and western blotting
[15] = test system: tRXRα; assay: Subcellular localization of tRXRα, immunostaining; type: cell-based; conditions: MCF-7 cells cotransfected with p85α; TNFα (10 ng ml^−1) for 30 min; confocal microscopy
Description: (§3) Cells mounted on glass slides or tumour tissue frozen sections (5-μm-thick) were washed with PBS and fixed in 4% paraformaldehyde (PFA) for 15 min and permeabilized with PBS containing 0.1% Triton X-100 for 15 min. Fixed cells or tumour tissues were blocked with 5 mg ml^−1 BSA in PBS for 30 min at room temperature, followed with incubation with primary antibodies for 3 h and secondary antibodies at room temperature for 1 h and co-stained with 4′6′-diamidino-2-phenylindole (DAPI) to visualize nuclei. The images were taken under an LSM-510 confocal laser scanning microscope system (Carl Zeiss).

[16] = test system: RXRα; assay: Subcellular localization of RXRα, immunostaining; type: cell-based; conditions: MCF-7 cells; TNFα (10 ng ml^−1) for 30 min; confocal microscopy
Description: as §3

[17] = test system: p85α / tRXRα interaction; assay: coIP, p85α with tRXRα; type: cell-based; conditions: HEK293T cells; TNFα (10 ng ml^−1) for 1 h; coIP anti-Myc
Description: as §4

[18] = test system: tRXRα/R316E; assay: Subcellular localization of tRXRα/R316E, immunostaining; type: cell-based; conditions: HEK293T cells; TNFα (10 ng ml^−1) for 30 min; confocal microscopy
Description: as §3

[19] = target: the molecule itself; assay: cross-linking; cells (HepG2, HEK293T, MCF-7) transfected for 24 h, treated with 9-cis-RA (10^-7 M) and/or K-80003 (5 x 10^-6 M) for 6 h; lysates or fractions incubated with 1 mM BS3, SDS-PAGE and western blotting
[20] = target: the molecule itself; assay: crystal structure; RXRα-LBD (0.35 mM) cocrystallized with K-80003, 2.6 Å; tetramer (dimer of dimers) with six K-80003 bound
[21] = target: the molecule itself; assay: native gel or EMSA; purified RXRα-LBD or mutant (0.2 μg/μl) incubated with DMSO, 9-cis-RA (0.5 μM) and/or K-80003 (20 μM) for 3 h at 4 °C; 8% non-denaturing PAGE, Coomassie staining

Q: Which “effect on RXRα-A/B / RXRα-LBD interaction” value [1] does the source give for CC1=C(/C=C/C(C)=C\C=C\C(C)=C\C(=O)O)C(C)(C)CCC1 [9-cis-RA, 9-cis-retinoic acid] here?
A: inhibited by 9-cis-RA in a dose-dependent manner

Q: And the “tRXRα interaction with p85α-ΔiSH2 with cotransfected RXRα-A/B” value ([2]; HEK293T cells, 9-cis-RA (10^−7 M) for 6 h, coIP anti-Myc)?
A: inhibited 9-cis-RA-induced interaction of tRXRα with p85α-ΔiSH2

Q: And the “oligomeric state of tRXRα/F313A” value [3]?
A: strong tetrameric species of tRXRα/R316E but not tRXRα/F313A independent of the presence of 9-cis-RA or K-80003

Q: What about the “effect on p85α-BCR interaction with tRXRα” value [4] of the same molecule?
A: enhancing effect of 9-cis-RA on p85α-BCR interaction

Q: And the “binding of RXRα-LBD/W305Q with p85α-BCR” value [5]?
A: impaired the binding of RXRα-LBD with p85α-BCR either in the presence or absence of 9-cis-RA

Q: And the “effect on RXRα-A/B / RXRα-LBD/W305Q interaction” value [6]?
A: could still bind to the RXRα-A/B protein in a 9-cis-RA sensitive manner similar to the wild-type RXRα-LBD

Q: And the “oligomeric state of tRXRα/R316E” value [7]?
A: strong tetrameric species of tRXRα/R316E but not tRXRα/F313A independent of the presence of 9-cis-RA or K-80003

Q: And the “interaction of tRXRα/R316E with p85α” value [8]?
A: could not bind to p85α either in the absence or presence of TNFα or 9-cis-RA

Q: What about the “interaction of tRXRα/F313A with p85α” value [9] of the same molecule?
A: constitutive and 9-cis-RA-independent interaction with p85α

Q: What about the effect on homotetramers [10] of the same molecule?
A: dissociation of homotetramers into homodimers

Q: What about the “effect on p85α-BCR interaction with RXRα-LBD” value [11] of the same molecule?
A: enhancing effect of 9-cis-RA on p85α-BCR interaction

Q: And the “crosslinked RXRα-LBD species” value [12]?
A: only monomer and homodimer

Q: What about the “effect on oligomeric state of RXRα-LBD/R316E” value [13] of the same molecule?
A: exhibited mainly as a tetramer independent of the presence of either 9-cis-RA or K-80003

Q: With O=C(CCCCCCC(=O)ON1C(=O)CC(S(=O)(=O)O)C1=O)ON1C(=O)CC(S(=O)(=O)O)C1=O (stereo not shown) [BS3, bis[sulfosuccinimidyl] suberate] as the molecule, how does the “9-cis-RA-induced tRXRα interaction with p85α-ΔiSH2” value ([2]; HepG2 cells, K-80003 and/or 9-cis-RA, then BS3 crosslinking, western blotting) read?
A: potently inhibited

Q: Which stoichiometry N [14] does the source give for Myc-RXRα-LBD (domain or fragment) here?
A: 2 and 4

Q: With TNFα as the molecule, how does the “tRXRα found in the cytoplasm of cells” value [15] read?
A: > 65%

Q: And the “effect on nuclear localization of RXRα” value [16]?
A: no effect on the nuclear localization of RXRα

Q: What about the “interaction of tRXRα with full-length p85α” value [17] of the same molecule?
A: tRXRα interacted with the full-length p85α in the presence of TNFα

Q: And the “interaction of tRXRα/R316E with p85α” value [8]?
A: could not bind to p85α either in the absence or presence of TNFα or 9-cis-RA

Q: What about the “colocalization of tRXRα/R316E with p85α” value [18] of the same molecule?
A: lack of colocalization of the tRXRα/R316E mutant with p85α in the absence or presence of TNFα

B1: Myc-tRXRα (domain or fragment, human, UniProt P19793 81-462, looked up)
chain: TTPTLGFSTGSPQLSSPMNPVSSSEDIKPPLGLNGVLKVPAHPSGNMASFTKHICAICGDRSSGKHYGVYSCEGCKGFFKRTVRKDLTYTCRDNKDCLIDKRQRNRCQYCRYQKCLAMGMKREAVQEERQRGKDRNENEVESTSSANEDMPVERILEAELAVEPKTETYVEANMGLNPSSPNDPVTNICQAADKQLFTLVEWAKRIPHFSELPLDDQVILLRAGWNELLIASFSHRSIAVKDGILLATGLHVHRNSAHSAGVGAIFDRVLTELVSKMRDMQMDKTELGCLRAIVLFNPDSKGLSNPAEVEALREKVYASLEAYCKHKYPEQPGRFAKLLLRLPALRSIGLKCLEHLFFFKLIGDTPIDTFLMEMLEAPHQMT
notes: retinoid X receptor alpha lacking the N-terminal 80 amino acids (deletion of 60 plus an additional 20 amino acids); also called truncated RXRα; N-terminally-cleaved RXRα; source: HEK293T, HepG2, transfected, in lysate
Q: For B1, which “stoichiometry N” value [19] is on record?
A: 4

B2: Myc-tRXRα/R316E (domain or fragment, human, UniProt P19793 81-462, looked up)
chain: B1 chain with R236E
notes: retinoid X receptor alpha lacking the N-terminal 80 amino acids; source: MCF-7, HEK293T, transfected, in lysate
Q: For B2, which “stoichiometry N” value [19] is on record?
A: 4

B3: RXRα-LBD (His tag cleaved, for crystallization) (domain or fragment, human, UniProt P19793 223-462, looked up)
chain: TSSANEDMPVERILEAELAVEPKTETYVEANMGLNPSSPNDPVTNICQAADKQLFTLVEWAKRIPHFSELPLDDQVILLRAGWNELLIASFSHRSIAVKDGILLATGLHVHRNSAHSAGVGAIFDRVLTELVSKMRDMQMDKTELGCLRAIVLFNPDSKGLSNPAEVEALREKVYASLEAYCKHKYPEQPGRFAKLLLRLPALRSIGLKCLEHLFFFKLIGDTPIDTFLMEMLEAPHQMT
Q: For B3, which “stoichiometry N” value [20] is on record?
A: 4

B4: His-RXRα-LBD (domain or fragment, human, UniProt P19793 223-462, looked up)
chain: B3 chain
Q: Which “stoichiometry N” value [21] does the source give for B4 here?
A: 2 and 4

B5: His-RXRα-LBD/R316E (domain or fragment, human, UniProt P19793 223-462, looked up)
chain: B3 chain with R94E
notes: source: bacteria expressed, purified
Q: With B5 as the molecule, how does the “stoichiometry N” value [21] read?
A: 4
